Assay results reported in US11548868B2, “Heterocyclic compounds, compositions comprising heterocyclic compound, and methods of use thereof” (JS INNOPHARM (SHANGHAI) LTD, priority 2017, dated 2023).

Each molecule was assayed against T1, TDO2 in A172 cancer cells (Homo sapiens, UniProt P48775) (assay: TDO2 Cellular Assay (kynurenine production in A172 cancer cells)). Conditions: L-Trp 1 mM, 24 hours incubation, kynurenine at 490 nm.
T1 construct: endogenous in cells; host or cells: A172 cancer cells
T1 sequence (P48775 whole entry): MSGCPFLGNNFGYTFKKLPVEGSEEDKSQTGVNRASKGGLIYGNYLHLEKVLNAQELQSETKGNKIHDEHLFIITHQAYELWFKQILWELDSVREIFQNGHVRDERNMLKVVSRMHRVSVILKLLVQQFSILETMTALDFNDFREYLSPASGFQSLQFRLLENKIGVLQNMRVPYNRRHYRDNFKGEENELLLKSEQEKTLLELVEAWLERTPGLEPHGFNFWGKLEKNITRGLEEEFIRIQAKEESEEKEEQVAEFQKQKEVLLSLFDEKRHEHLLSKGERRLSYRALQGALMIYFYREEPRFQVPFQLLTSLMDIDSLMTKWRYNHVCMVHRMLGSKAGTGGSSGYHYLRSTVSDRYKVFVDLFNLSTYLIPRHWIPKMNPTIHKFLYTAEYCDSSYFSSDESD
Type: cell-based
Description: A172 cancer cells (3×10^4 per well) in 85 μL DMEM medium containing 10% FBS were seeded in a 96-well plate and incubated at 95% humidity and 5% CO2 at 37° C. for overnight. On the next day, L-Trp solution (10 μL, 1 mM final concentration) and serial dilutions of the test compounds and DMEM medium resulting in a total final volume of 100 μL each well. The test compounds were dissolved in DMSO and successively diluted with pH7.5 butter (with final DMSO concentration of 0.25%) resulting in final concentrations of the test compounds ranging from 0 to 25 μM (0, 2.5, 7.5, 25, 75, 250, 750, 2500, 7500, & 25000 nM). After 24 hours of incubation, 70 uL of the supernatant per well was transferred to a new 96 well plate. 8 μL of trichloroacetic acid (6.1 N) was mixed into each well and incubated at 50° C. for 30 min to hydrolyze N-formylkynurenine to kynurenine. The reaction mixture was then centrifuged for 10 min at 2500 RPM to remove sediments. 50 μL of the supernatant per well was transferred to another 96 well plate and mixed with 50 μL of 2% (w/v) p-dimethylaminobenzaldehyde in acetic acid. The yellow color derived from kynurenine was measured at 490 nm using a microplate reader. Percent inhibition of the test compounds was determined by measuring the decrease in kynurenine as compared to the control of DMSO vehicle, which was calculated by formula of (WC−WT)/WC, where WC is the mean absorbance of the control well minus blank well; WT is the mean absorbance of the test well minus the blank well. Data was analyzed by GraphPad Prism 5 and the IC50 values were obtained by non-linear regression.
The IC50 values of for Compounds disclosed are listed in Table 2, A′: ≤0.5 μM; B′: >0.5 μM and ≤1 μM; C′: >1.0 μM and ≤5 uM; and D′: >5 μM.

**Q.** `O=S(=O)(N[C@H]1[C@@H]2C[C@@](O)(c3cc(Cl)cc4[nH]ncc34)C[C@@H]21)C1CCCCC1` [Example 78, N-((1R,3r,5S,6r)-3-(6-chloro-1H-indazol-4-yl)-3-hydroxybicyclo[3.1.0]hexan-6-yl)cyclohexanesulfonamide] was tested. Which IC50 did it give?
**A.** ≤ 500 nM

**Q.** `O=C(C1CCC1)N1C[C@@H]2C[C@@](O)(c3cc(Cl)cc4[nH]ncc34)C[C@@H]2C1` [Example 60, ((3aR,5r,6aS)-5-(6-chloro-1H-indazol-4-yl)-5-hydroxyhexahydrocyclopenta[c]pyrrol-2(1H)-yl)(cyclobutyl)methanone] was tested. Which IC50 did it give?
**A.** ≤ 500 nM

**Q.** How did the IC50 turn out when `O=S(=O)(N[C@H]1[C@@H]2C[C@@](O)(c3cc(Cl)cc4[nH]ncc34)C[C@@H]21)C1CC1` [Example 73, N-((1R,3r,5S,6r)-3-(6-chloro-1H-indazol-4-yl)-3-hydroxybicyclo[3.1.0]hexan-6-yl)cyclopropanesulfonamide] was run?
**A.** ≤ 500 nM

**Q.** `CC(=O)N1C[C@@H]2CN(c3c(C(F)(F)F)ccn4cncc34)C[C@@H]2C1(C)C` (racemic) [Example 58, Racemic-1-((3aS,6aR)-1,1-dimethyl-5-(7-(trifluoromethyl)imidazo[1,5-a]pyridin-8-yl)hexahydropyrrolo[3,4-c]pyrrol-2(1H)-yl)ethanone] was tested. Which IC50 did it give?
**A.** > 5000 nM

**Q.** Which IC50 does the source give for `N#Cc1ccc(S(=O)(=O)N2C[C@H]3CN(c4cc(Cl)cc5[nH]ncc45)C[C@H]3C2)cc1` [Example 33, 4-(((3aR,6aS)-5-(6-chloro-1H-indazol-4-yl)hexahydropyrrolo[3,4-c]pyrrol-2(1H)-yl)sulfonyl)benzonitrile] here?
**A.** > 5000 nM

**Q.** Which IC50 does the source give for `CC1(C)C2CN(c3cc(Cl)cc4[nH]ncc34)CC2CN1S(=O)(=O)c1ccc(C#N)cc1` (stereo not shown) [Example 26, 4-(5-(6-chloro-1H-indazol-4-yl)-1,1-dimethylhexahydropyrrolo[3,4-c]pyrrol-2(1H)-ylsulfonyl)benzonitrile] here?
**A.** 1000 to 5000 nM

**Q.** For `O=C(N[C@H]1[C@@H]2C[C@@](O)(c3cc(Cl)cc4[nH]ncc34)C[C@@H]21)C1CCCO1` (stereo partly drawn) [Example 75, N-((1R,3r,5S,6r)-3-(6-chloro-1H-indazol-4-yl)-3-hydroxybicyclo[3.1.0]hexan-6-yl)tetrahydrofuran-2-carboxamide], which IC50 is on record?
**A.** ≤ 500 nM

**Q.** How did the IC50 turn out when `CC1(C)[C@H]2CN(c3c(C(F)(F)F)ccn4cncc34)C[C@H]2CN1S(C)(=O)=O` (racemic) [Example 57, Racemic-8-((3aR,6aS)-4,4-dimethyl-5-(methylsulfonyl)hexahydropyrrolo[3,4-c]pyrrol-2(1H)-yl)-7-(trifluoromethyl)imidazo[1,5-a]pyridine] was run?
**A.** > 5000 nM

**Q.** How did the IC50 turn out when `CC(C)(C)OC(=O)N1C[C@@H]2C[C@@](O)(c3cc(Cl)cc4[nH]ncc34)C[C@@H]2C1` [Example 54, (3aR,5r,6aS)-tert-butyl 5-(6-chloro-1H-indazol-4-yl)-5-hydroxyhexahydrocyclopenta[c]pyrrole-2(1H)-carboxylate] was run?
**A.** ≤ 500 nM

**Q.** For `CC(C)OC(=O)N1C[C@@H]2C[C@@](O)(c3cc(Cl)cc4[nH]ncc34)C[C@@H]2C1` [Example 61, (3aR,5r,6aS)-isopropyl 5-(6-chloro-1H-indazol-4-yl)-5-hydroxyhexahydrocyclopenta[c]pyrrole-2(1H)-carboxylate], which IC50 is on record?
**A.** ≤ 500 nM

**Q.** How did the IC50 turn out when `O=C(C1CCCCC1)N1C[C@@H]2C[C@@](O)(c3cc(Cl)cc4[nH]ncc34)C[C@@H]2C1` [Example 62, ((3aR,5r,6aS)-5-(6-chloro-1H-indazol-4-yl)-5-hydroxyhexahydrocyclopenta[c]pyrrol-2(1H)-yl)(cyclohexyl)methanone] was run?
**A.** ≤ 500 nM

**Q.** `CCC(=O)N1C[C@@H]2C[C@@](O)(c3cc(Cl)cc4[nH]ncc34)C[C@@H]2C1` [Example 70, 1-((3aR,5r,6aS)-5-(6-chloro-1H-indazol-4-yl)-5-hydroxyhexahydrocyclopenta[c]pyrrol-2(1H)-yl)propan-1-one] was tested. Which IC50 did it give?
**A.** ≤ 500 nM

**Q.** With `O=C(N[C@H]1[C@@H]2C[C@@](O)(c3cc(Cl)cc4[nH]ncc34)C[C@@H]21)C1CCCC1` [Example 79, N-((1R,3r,5S,6r)-3-(6-chloro-1H-indazol-4-yl)-3-hydroxybicyclo[3.1.0]hexan-6-yl)cyclopentanecarboxamide] as the molecule, how does the IC50 read?
**A.** ≤ 500 nM

**Q.** For `CC(C)C(=O)N[C@H]1[C@@H]2C[C@@](O)(c3cc(Cl)cc4[nH]ncc34)C[C@@H]21` [Example 92, N-((1R,3r,5S,6r)-3-(6-chloro-1H-indazol-4-yl)-3-hydroxybicyclo[3.1.0]hexan-6-yl)isobutyramide], which IC50 is on record?
**A.** ≤ 500 nM

**Q.** Which IC50 does the source give for `O=C(C1CCOC1)N1C[C@@H]2C[C@@](O)(c3cc(Cl)cc4[nH]ncc34)C[C@@H]2C1` (stereo partly drawn) [Example 68, ((3aR,5r,6aS)-5-(6-chloro-1H-indazol-4-yl)-5-hydroxyhexahydrocyclopenta[c]pyrrol-2(1H)-yl)(tetrahydrofuran-3-yl)methanone] here?
**A.** ≤ 500 nM

**Q.** How did the IC50 turn out when `O=S(=O)(N[C@H]1[C@@H]2C[C@@](O)(c3cc(Cl)cc4[nH]ncc34)C[C@@H]21)C1CCCC1` [Example 74, N-((1R,3r,5S,6r)-3-(6-chloro-1H-indazol-4-yl)-3-hydroxybicyclo[3.1.0]hexan-6-yl)cyclopentanesulfonamide] was run?
**A.** ≤ 500 nM

**Q.** `CC1(C)C2CN(c3cc(Cl)cc4[nH]ncc34)CC2CN1S(C)(=O)=O` (racemic) [Example 1, 6-chloro-4-(4,4-dimethyl-5-(methylsulfonyl)hexahydropyrrolo[3,4-c]pyrrol-2(1H)-yl)-1H-indazole] was tested. Which IC50 did it give?
**A.** ≤ 500 nM

**Q.** Which IC50 does the source give for `CC(C)OC(=O)N[C@H]1[C@@H]2C[C@@](O)(c3cc(Cl)cc4[nH]ncc34)C[C@@H]21` [Example 86, isopropyl ((1R,3r,5S,6r)-3-(6-chloro-1H-indazol-4-yl)-3-hydroxybicyclo[3.1.0]hexan-6-yl)carbamate] here?
**A.** ≤ 500 nM

**Q.** With `CC(C)(C)C(=O)N[C@H]1[C@@H]2C[C@@](O)(c3cc(Cl)cc4[nH]ncc34)C[C@@H]21` [Example 90, N-((1R,3r,5S,6r)-3-(6-chloro-1H-indazol-4-yl)-3-hydroxybicyclo[3.1.0]hexan-6-yl)pivalamide] as the molecule, how does the IC50 read?
**A.** ≤ 500 nM

**Q.** How did the IC50 turn out when `O=S(=O)(C1CC1)N1C[C@@H]2C[C@@](O)(c3cc(Cl)cc4[nH]ncc34)C[C@@H]2C1` [Example 37, (3aR,5r,6aS)-5-(6-chloro-1H-indazol-4-yl)-2-(cyclopropylsulfonyl)octahydrocyclopenta[c]pyrrol-5-ol] was run?
**A.** ≤ 500 nM

**Q.** How did the IC50 turn out when `CCS(=O)(=O)N[C@H]1[C@@H]2C[C@@](O)(c3cc(Cl)cc4[nH]ncc34)C[C@@H]21` [Example 71, N-((1R,3r,5S,6r)-3-(6-chloro-1H-indazol-4-yl)-3-hydroxybicyclo[3.1.0]hexan-6-yl)ethanesulfonamide] was run?
**A.** ≤ 500 nM

**Q.** With `CCOC(=O)N[C@H]1[C@@H]2C[C@@](O)(c3cc(Cl)cc4[nH]ncc34)C[C@@H]21` [Example 81, ethyl ((1R,3r,5S,6r)-3-(6-chloro-1H-indazol-4-yl)-3-hydroxybicyclo[3.1.0]hexan-6-yl)carbamate] as the molecule, how does the IC50 read?
**A.** ≤ 500 nM

**Q.** `CC1(C)[C@H]2CN(c3cc(Cl)cc4[nH]ncc34)C[C@H]2CN1C(N)=O` (racemic) [Example 31, Racemic-(3aS,6aR)-5-(6-chloro-1H-indazol-4-yl)-1,1-dimethylhexahydropyrrolo[3,4-c]pyrrole-2(1H)-carboxamide] was tested. Which IC50 did it give?
**A.** ≤ 500 nM

**Q.** For `CC1(C)C2CN(c3cc(Cl)cc4[nH]ncc34)CC2CN1C(=O)C1CC1` (stereo not shown) [Example 29, (5-(6-chloro-1H-indazol-4-yl)-1,1-dimethylhexahydropyrrolo[3,4-c]pyrrol-2(1H)-yl)(cyclopropyl)methanone], which IC50 is on record?
**A.** 500 to 1000 nM

**Q.** For `O=C(N[C@H]1[C@@H]2C[C@@](O)(c3cc(Cl)cc4[nH]ncc34)C[C@@H]21)C1CCC1` [Example 84, N-((1R,3r,5S,6r)-3-(6-chloro-1H-indazol-4-yl)-3-hydroxybicyclo[3.1.0]hexan-6-yl)cyclobutanecarboxamide], which IC50 is on record?
**A.** ≤ 500 nM

**Q.** For `COC(=O)N1C[C@@H]2C[C@@](O)(c3cc(Cl)cc4[nH]ncc34)C[C@@H]2C1` [Example 67, (3aR,5r,6aS)-methyl 5-(6-chloro-1H-indazol-4-yl)-5-hydroxyhexahydrocyclopenta[c]pyrrole-2(1H)-carboxylate], which IC50 is on record?
**A.** ≤ 500 nM

**Q.** With `CS(=O)(=O)N1C[C@@H]2CC(c3cc(Cl)cc4[nH]ncc34)=C[C@@H]2C1` (racemic) [Example 5, Racemic-6-chloro-4-((3aR,6aS)-2-(methylsulfonyl)-1,2,3,3a,4,6a-hexahydrocyclopenta[c]pyrrol-5-yl)-1H-indazole] as the molecule, how does the IC50 read?
**A.** ≤ 500 nM

**Q.** With `CC1(C)[C@H]2CN(c3cc(Cl)cn4cncc34)C[C@H]2CN1S(C)(=O)=O` (racemic) [Example 49, Racemic-6-chloro-8-((3aR,6aS)-4,4-dimethyl-5-(methylsulfonyl)hexahydropyrrolo[3,4-c]pyrrol-2(1H)-yl)imidazo[1,5-a]pyridine] as the molecule, how does the IC50 read?
**A.** 1000 to 5000 nM
